Counter-ions that a name gives are not always drawn.
How the values were obtained:
[1] = in vivo; cited from earlier work
[2] = water; cited from earlier work
opioid-dependent patient = assay: Clinical case reports: nalbuphine 2 cc IM twice a day in opioid-dependent patients (Examples 1A-7A); format: in vivo, human
[3] = tested on: HIV-infected, opioid-dependent patient; assay: Average adherence to ARV regimen during nalbuphine administration; format: in vivo, human
Procedure: Compliance with a treatment regimen and in particular to an ARV regimen is determined using an “average adherence” value calculated using the formula: […]
where A is the number of tablets or gel capsules required by the protocol to be administered to a patient over four weeks; and B is the number of tablets or gel capsules prescribed but actually not taken by a patient over the same period of time.

[4] = tested on: IDU (injectable drug users); assay: Pilot study of Nalbuphine administration to IDU (injectable drug users), Example 8A; format: in vivo, human
Description: A pilot study was initiated to evaluate treatment with Nalbuphine (agonist-antagonist) in the context of HIV prevention, treatment and care interventions. The first pilot study of the effects of Nalbuphine administration to IDU (injectable drug users) started at the 8th of August 2006 in Moscow. It is still being conducted on outpatient basis.
Duration of individual treatment varied from patient to patient (from 10 days to 180 days) depending on patient's condition, life-style, substance abuse history, etc. The frequency of administration varied from 20 mg per patient bid (initially) to 20 mg per patient per week (after 30 days).
The objective of the study is to compare this method with the other methods of drug treatment typical for Russia, and to measure the effects of out-patient Nalbuphine administration using following criteria:
The clinical trial included 19 clients, all with simultaneous codeine addiction, 7 patients living with AIDS, 4 being multiple substance users. In all cases, the patient was a difficult case (5-11 years of heroin abuse). 3 of the patients had very high (3-5 g a day) doses of heroin abuse.
All patients were between 18-50 years old, diagnosed with opiate abuse (in some cases in combination with other substances). They were admitted to the study after three days of opiate abstinence.
Patients with psychiatric, oncological, diabetic conditions, chronic kidney illnesses, and pregnancy were excluded from the study.

[5] = tested on: opioid-dependent patients; assay: Study of 28 patients who received Nalbuphine for up to 6 months, Example 9A; format: in vivo, human
Description: The results of a study of 28 patients who received Nalbuphine for up to 6 months are as follows.

[6] = Example 1A, M., 2 cc IM twice a day for 48 days
[7] = Example 3A, N., 2 cc IM twice a day for 30 days

Oc1ccc2c3c1O[C@H]1[C@@H](O)CCC4(O)C(C2)N(CC2CCC2)CCC314 (stereo partly drawn) [nalbuphine hydrochloride, 17-(cyclobutylmethyl)-4,5α-epoxymorphinan-3,6α-14-triol hydrochloride]
plasma half life [1]: about five | solubility [2]: Water-soluble

Oc1ccc2c3c1OC1[C@@H](O)CCC4(O)[C@@H](C2)N(CC2CCC2)CC[C@]314 (stereo partly drawn) [nalbuphine, 17-(cyclobutylmethyl)-4,5α-epoxymorphinane-3,6α-14-triol]
aggravation of opportunistic infections or HCV (opioid-dependent patient; [6]): No aggravation | craving (opioid-dependent patient; [6]): profound decrease in craving | desire for drug use (opioid-dependent patient; Example 2A, D., 2 cc IM twice a day for 52 days): denies desire for drug use | aggravation of opportunistic infections or HCV (opioid-dependent patient; Example 3A, N.): No aggravation | cravings for drugs (opioid-dependent patient; [7]): cravings for drugs decreased | pain (chronic osteomyelitis) (opioid-dependent patient; [7]): pain relief | aggravation of opportunistic infections or HCV (opioid-dependent patient; Example 5A, V.): No aggravation | alcohol problems (opioid-dependent patient; Example 5A, V.): problems with alcohol persist | aggravation of opportunistic infections or HCV (opioid-dependent patient; Example 6A, L.): No aggravation | drug cravings (opioid-dependent patient; Example 6A, L.): drug cravings decreased | attempts of suicide (opioid-dependent patient; Example 6A, L., multiple earlier attempts): No attempts of suicide | Average adherence to ART during April ([3]; Example 3A, N., 98% in January-March 2006 before nalbuphine): 100% | Average adherence to ART during April ([3]; Example 4A, S., male, Stocrin+Combivir, 76% in January-March 2006 before nalbuphine): 97% | Average adherence to ART during April ([3]; Example 5A, V., Stocrin and Combivir, 70% in January-March 2006 before nalbuphine): 95% | Average adherence to ART during April ([3]; Example 6A, L., Efavirenz and Combivir, 68% in January-March 2006 before nalbuphine): 93% | Average adherence to ART during April ([3]; Example 7A, S., female, 98% in January-March 2006 before nalbuphine): 93% | side effects or drug-drug interactions ([4]; 19 clients): No side effects or drug-drug interactions were observed | involvement/adherence to HIV treatments ([4]; all HIV-positive patients): higher involvement/adherence | quality of life ([4]; all patients): improved quality of life | patients who stopped heroin and codeine consumption ([4]; of 19 clients, 20 mg bid initially to 20 mg per week, 10 to 180 days, outpatient): 18 patients | correlation between administrated dose and heroin consumption ([5]; 28 patients): inverse correlation | overdose, side effects or new infections associated with injectable drugs ([5]; 28 patients): no observed instances of overdose, side effects or new infections | quality of life ([5]; 28 patients): improved | people staying clean (periodic urine tests for opiates) while on therapy ([5]; 28 patients, up to 6 months): two thirds | reduction of total heroin and other opiate consumption ([5]; 28 patients, up to 6 months): up to 75% | cravings for drug ([5]; all patients): clear reduction of cravings for drug | compliance (adherence) to ARVT ([5]; patients already receiving ARVT): nearly perfect compliance (adherence)

— patent publication US20090060871A1, “ADMINISTRATION OF AGONIST-ANTAGONIST IN OPIOID-DEPENDENT PATIENTS” (priority 2006, published 2009)
